In assay [1] the test system is Enterococcus faecium. Description: Inhibition of Enterococcus faecium D63r PBP5 assessed as assessed as residual activity at 1 mM after 4 hrs by fluorescence spectroscopy in presence of fluorescein-labeled ampicillin.
For assay [2], the system named is Actinomadura sp. R39. Description: Inhibition of Actinomadura R39 D,D-peptidase assessed as inhibition of hydrolysis of thiolester substrate S2d measured as residual activity at 100 uM after 1 hr by Ellman's method.
The subject of assay [3] is Staphylococcus aureus. As to the kind of experiment: Inhibition of methicillin-resistant Staphylococcus aureus ATCC 43300 PBP5 assessed as residual activity at 1 mM after 4 hrs by fluorescence spectroscopy in presence of fluorescein-labeled ampicillin.

The structures appear in SMILES notation.

Turning to `C=CCCC(=O)N1C[C@H](NC(=O)CCCCCC)C1=O`, the Activity in assay [1] worked out at 6%; in assay [2], 92%; in assay [3], 100%.

With `CCCCC(=O)N1C[C@H](NC(=O)CCCC/C=C/CCCCC(=O)N[C@H]2CN(C(=O)CCCC)C2=O)C1=O`, the values for the Activity in assay [1], in assay [2] and in assay [3] were 5%, 90% and 89%, respectively.

Regarding `C=CCCCC(=O)N[C@H]1CN(C(=O)CCCC=C)C1=O`, the Activity in assay [1] is 17%; in assay [2], 90%; in assay [3] it was 100%.

`C=CCCCCC(=O)N1C[C@H](NC(=O)CCC=C)C1=O`: the values for the Activity in assay [1], in assay [2] and in assay [3] were 50%, 72% and 77%, respectively.

In the case of `C=CCCCCC(=O)N[C@H]1CN(C(=O)CCCCC=C)C1=O`, the Activity in assay [1] came to 23%; in assay [2], 80%; in assay [3] it was 81%.

`CCCCCCC(=O)N[C@H]1CN(C(=O)CCCCCCC(=O)N2C[C@H](NC(=O)CCCCCC)C2=O)C1=O`: the Activity came to 10% in assay [1], 74% in assay [2] and 99% in assay [3].

For the molecule `C=CCCCC(=O)N1C[C@H](NC(=O)CCC=C)C1=O`, the Activity stood at 39% in assay [1], 99% in assay [2] and 100% in assay [3].

For `CCCCCCC(=O)N[C@H]1CN(C(=O)CC/C=C/CCC(=O)N2C[C@H](NC(=O)CCCCCC)C2=O)C1=O`, the Activity in assay [1] turned out to be 0%; in assay [2], 100%; in assay [3], 100%.

Regarding `C=CCCCCC(=O)N[C@H]1CN(C(=O)CCC=C)C1=O`, the Activity in assay [1] amounted to 14%; in assay [2], 91%; in assay [3], 89%.

For the molecule `C=CCCCC(=O)N[C@H]1CN(C(=O)CCC=C)C1=O`, the Activity in assay [1] is 14%; in assay [2], 98%; in assay [3], 93%.

As for `C=CCCC(=O)N[C@H]1CN(C(=O)CCC=C)C1=O`, the values for the Activity in assay [1], in assay [2] and in assay [3] were more than 100%, 72% and 79%, respectively.

Consider `C=CCCCCC(=O)N[C@H]1CN(C(=O)CCCC=C)C1=O`, for which the Activity in assay [1] was 21%; in assay [2] it was 74%; in assay [3] it was 85%.

For the molecule `CCCCC(=O)N1C[C@H](NC(=O)CCCCCCCCCCC(=O)N[C@H]2CN(C(=O)CCCC)C2=O)C1=O`, the Activity was found to be 3% in assay [1], 89% in assay [2] and 90% in assay [3].

For the molecule `C=CCCCCC(=O)N1C[C@H](NC(=O)CCCC=C)C1=O`, the figures for the Activity in assay [1], in assay [2] and in assay [3] were 15%, 86% and 82%, respectively.

On to `C=CCCCCC(=O)N[C@H]1CN(C(=O)CCCC)C1=O`, for which the Activity in assay [1] turned out to be 5%; in assay [2], 97%; in assay [3] it was 100%.
